Read-outs that look alike come from different tables or passages of the source.
How the values were obtained:
[1] = tested on: M. tuberculosis in THP-1 macrophage; assay type: cell-based, Mycobacterium tuberculosis
[2] = tested on: Mycobacterium tuberculosis
THP-1 macrophages = assay: Cytotoxic effect on THP-1 macrophages, fluorescence microscopy after DAPI staining; assay type: cell-based, Human; conditions: 100 µM; images after 10th day of inhibitor treatment; compared with untreated control
Protocol: THP-1 macrophage cells were grown on cover slip in 8 well microplates and washed twice with chilled methanol followed by staining with 4', 6-diamidino-2-phenylindole (DAPI) at final concentration of 300 nM. Macrophage cells were kept for 15 min at room temperature under dark condition. After incubation, cells were washed three times with distilled water and analyzed under the fluorescence microscope (Leitz Wetzlar model, Germany) at 350 nm excitation and 450 nm emission wavelengths (400 X) using 'A'filter.
To investigate the host THP-1 macrophage cells condition due to its exposure to p-HMB inhibitor before considering its effective and specific inhibition of bacilli in macrophage infection models, fluorescence microscopic picture of THP-1 cells treated with p-HMB (100 µM) was compared with the untreated control after staining with DAPI(4',6-diamidino-2-phenylindole). Fluorescence images were taken after 10th day of inhibitor treatment.

Compound | decrease in intracellular viable cell count (log difference compared to control) [1] [log] | cell count reduced (log difference) [2] [log] | inhibition of bacilli grown under ammonia [2] | decrease in intracellular viable cell count (log difference compared to control) ([1]; […], cell counts on 10th day PI, control without inhibitor) [log] | reduction of bacilli count ([1]; summary statement: in-vitro and ex-vivo conditions) [log cfu] | cytotoxic effect on macrophage (integrity of nuclear structure) (THP-1 macrophages)
[N-]=[N+]=[N-] [Azide] | ~1.5 |  |  |  |  | 
CS(=N)(=O)CC[C@H](N)C(=O)O (stereo partly drawn) [L-MSO, L-methionine sulfoximine] | ~2.5 |  |  |  |  | 
O=C(O)c1cc[c]([Hg][OH])cc1 [p-HMB, para-hydroxy mercuric benzoate] |  | ~2.5 | no inhibition was observed | ~2 | ~2 | without exhibiting any cytotoxic effects on macrophage
